# Measurements taken from ChEMBL document CHEMBL1671696, “Deamplification of pfmdr1-containing amplicon on chromosome 5 in Plasmodium falciparum is associated with reduced resistance to artelinic acid in vitro” (Antimicrob Agents Chemother, 2010).
# Tests used:
# Plasmodium falciparum [1] = assay: Ratio of IC50 for Plasmodium falciparum subclone 3A17 containing 2 copy number of pfmdr1-containing amplicon on chromosome 5 to IC50 for wild type Plasmodium falciparum W2; assay type: functional
# Plasmodium falciparum [2] = assay: Antimicrobial activity against Plasmodium falciparum subclone 3A8 containing 3 copy number of pfmdr1-containing amplicon on chromosome 5 assessed as growth inhibition by [3H]hypoxanthine incorporation assay; assay type: functional, organism-based
# Plasmodium falciparum [3] = assay: Ratio of IC50 for Plasmodium falciparum subclone 3A7 containing 4 copy number of pfmdr1-containing amplicon on chromosome 5 to IC50 for wild type Plasmodium falciparum W2; assay type: functional
# Plasmodium falciparum [4] = assay: Ratio of IC50 for Plasmodium falciparum subclone 3A12 containing 2 copy number of pfmdr1-containing amplicon on chromosome 5 to IC50 for wild type Plasmodium falciparum W2; assay type: functional
# Plasmodium falciparum [5] = assay: Antimicrobial activity against Plasmodium falciparum subclone 3C1 containing 3 copy number of pfmdr1-containing amplicon on chromosome 5 assessed as growth inhibition by [3H]hypoxanthine incorporation assay; assay type: functional, organism-based
# Plasmodium falciparum [6] = assay: Ratio of IC90 for Plasmodium falciparum subclone 3C10 containing 2 copy number of pfmdr1-containing amplicon on chromosome 5 to IC90 for wild type Plasmodium falciparum W2; assay type: functional
# Plasmodium falciparum [7] = assay: Ratio of IC90 for Plasmodium falciparum subclone 3A7 containing 4 copy number of pfmdr1-containing amplicon on chromosome 5 to IC90 for wild type Plasmodium falciparum W2; assay type: functional
# Plasmodium falciparum [8] = assay: Ratio of IC50 for Plasmodium falciparum subclone 3C1 containing 3 copy number of pfmdr1-containing amplicon on chromosome 5 to IC50 for wild type Plasmodium falciparum W2; assay type: functional
# Plasmodium falciparum [9] = assay: Antimicrobial activity against Plasmodium falciparum subclone 3A1 containing 1 copy number of pfmdr1-containing amplicon on chromosome 5 assessed as growth inhibition by [3H]hypoxanthine incorporation assay; assay type: functional, organism-based
# Plasmodium falciparum [10] = assay: Ratio of IC90 for Plasmodium falciparum subclone 3C1 containing 3 copy number of pfmdr1-containing amplicon on chromosome 5 to IC90 for wild type Plasmodium falciparum W2; assay type: functional
# Plasmodium falciparum [11] = assay: Ratio of IC50 for Plasmodium falciparum subclone 3C10 containing 2 copy number of pfmdr1-containing amplicon on chromosome 5 to IC50 for wild type Plasmodium falciparum W2; assay type: functional
# Plasmodium falciparum [12] = assay: Antimicrobial activity against Plasmodium falciparum subclone 3A17 containing 2 copy number of pfmdr1-containing amplicon on chromosome 5 assessed as growth inhibition by [3H]hypoxanthine incorporation assay; assay type: functional, organism-based
# Plasmodium falciparum [13] = assay: Ratio of IC50 for Plasmodium falciparum clone W2AL80 containing 3 copy number of pfmdr1-containing amplicon on chromosome 5 to IC50 for wild type Plasmodium falciparum W2; assay type: functional
# Plasmodium falciparum [14] = assay: Ratio of IC90 for Plasmodium falciparum subclone 3A26 containing 3 copy number of pfmdr1-containing amplicon on chromosome 5 to IC90 for wild type Plasmodium falciparum W2; assay type: functional
# Plasmodium falciparum [15] = assay: Ratio of IC90 for Plasmodium falciparum clone W2AL80 containing 3 copy number of pfmdr1-containing amplicon on chromosome 5 to IC90 for wild type Plasmodium falciparum W2; assay type: functional
# Plasmodium falciparum [16] = assay: Antimicrobial activity against Plasmodium falciparum subclone 3A26 containing 3 copy number of pfmdr1-containing amplicon on chromosome 5 assessed as growth inhibition by [3H]hypoxanthine incorporation assay; assay type: functional, organism-based
# Plasmodium falciparum [17] = assay: Ratio of IC50 for Plasmodium falciparum subclone 3A8 containing 3 copy number of pfmdr1-containing amplicon on chromosome 5 to IC50 for wild type Plasmodium falciparum W2; assay type: functional
# Plasmodium falciparum [18] = assay: Ratio of IC90 for Plasmodium falciparum subclone 3C20 containing 2 copy number of pfmdr1-containing amplicon on chromosome 5 to IC90 for wild type Plasmodium falciparum W2; assay type: functional
# Plasmodium falciparum [19] = assay: Ratio of IC50 for Plasmodium falciparum subclone 3A26 containing 3 copy number of pfmdr1-containing amplicon on chromosome 5 to IC50 for wild type Plasmodium falciparum W2; assay type: functional
# Plasmodium falciparum [20] = assay: Ratio of IC90 for Plasmodium falciparum subclone 3A12 containing 2 copy number of pfmdr1-containing amplicon on chromosome 5 to IC90 for wild type Plasmodium falciparum W2; assay type: functional
# Plasmodium falciparum [21] = assay: Ratio of IC90 for Plasmodium falciparum subclone 3A1 containing 1 copy number of pfmdr1-containing amplicon on chromosome 5 to IC90 for wild type Plasmodium falciparum W2; assay type: functional
# Plasmodium falciparum [22] = assay: Ratio of IC50 for Plasmodium falciparum subclone 3C18 containing 3 copy number of pfmdr1-containing amplicon on chromosome 5 to IC50 for wild type Plasmodium falciparum W2; assay type: functional
# Plasmodium falciparum [23] = assay: Ratio of IC90 for Plasmodium falciparum subclone 3A3 containing 1 copy number of pfmdr1-containing amplicon on chromosome 5 to IC90 for wild type Plasmodium falciparum W2; assay type: functional
# Plasmodium falciparum [24] = assay: Antimicrobial activity against Plasmodium falciparum subclone 3A12 containing 2 copy number of pfmdr1-containing amplicon on chromosome 5 assessed as growth inhibition by [3H]hypoxanthine incorporation assay; assay type: functional, organism-based
# Plasmodium falciparum [25] = assay: Antimicrobial activity against drug pre-treated Plasmodium falciparum clone W2AL80 containing 3 copy number of pfmdr1-containing amplicon on chromosome 5 assessed as growth inhibition by [3H]hypoxanthine incorporation assay; assay type: functional, organism-based
# Plasmodium falciparum [26] = assay: Ratio of IC90 for Plasmodium falciparum subclone 3C18 containing 3 copy number of pfmdr1-containing amplicon on chromosome 5 to IC90 for wild type Plasmodium falciparum W2; assay type: functional
# Plasmodium falciparum [27] = assay: Ratio of IC90 for Plasmodium falciparum subclone 3A17 containing 2 copy number of pfmdr1-containing amplicon on chromosome 5 to IC90 for wild type Plasmodium falciparum W2; assay type: functional
# Plasmodium falciparum [28] = assay: Antimicrobial activity against Plasmodium falciparum subclone 3C18 containing 3 copy number of pfmdr1-containing amplicon on chromosome 5 assessed as growth inhibition by [3H]hypoxanthine incorporation assay; assay type: functional, organism-based
# Plasmodium falciparum [29] = assay: Antimicrobial activity against Plasmodium falciparum subclone 3C10 containing 2 copy number of pfmdr1-containing amplicon on chromosome 5 assessed as growth inhibition by [3H]hypoxanthine incorporation assay; assay type: functional, organism-based
# Plasmodium falciparum [30] = assay: Antimicrobial activity against Plasmodium falciparum subclone 3A3 containing 1 copy number of pfmdr1-containing amplicon on chromosome 5 assessed as growth inhibition by [3H]hypoxanthine incorporation assay; assay type: functional, organism-based
# Plasmodium falciparum [31] = assay: Ratio of IC50 for Plasmodium falciparum subclone 3A3 containing 1 copy number of pfmdr1-containing amplicon on chromosome 5 to IC50 for wild type Plasmodium falciparum W2; assay type: functional
# Plasmodium falciparum [32] = assay: Antimicrobial activity against Plasmodium falciparum subclone 3A7 containing 4 copy number of pfmdr1-containing amplicon on chromosome 5 assessed as growth inhibition by [3H]hypoxanthine incorporation assay; assay type: functional, organism-based
# Plasmodium falciparum [33] = assay: Ratio of IC90 for Plasmodium falciparum subclone 3A8 containing 3 copy number of pfmdr1-containing amplicon on chromosome 5 to IC90 for wild type Plasmodium falciparum W2; assay type: functional
# Plasmodium falciparum [34] = assay: Antimicrobial activity against Plasmodium falciparum subclone 3C20 containing 2 copy number of pfmdr1-containing amplicon on chromosome 5 assessed as growth inhibition by [3H]hypoxanthine incorporation assay; assay type: functional, organism-based
# Plasmodium falciparum [35] = assay: Ratio of IC50 for Plasmodium falciparum subclone 3A1 containing 1 copy number of pfmdr1-containing amplicon on chromosome 5 to IC50 for wild type Plasmodium falciparum W2; assay type: functional
# Plasmodium falciparum [36] = assay: Ratio of IC50 for Plasmodium falciparum subclone 3C20 containing 2 copy number of pfmdr1-containing amplicon on chromosome 5 to IC50 for wild type Plasmodium falciparum W2; assay type: functional
# Plasmodium falciparum [37] = assay: Antimicrobial activity against compound-sensitive Plasmodium falciparum clone W2 assessed as growth inhibition by [3H]hypoxanthine incorporation assay; assay type: functional, organism-based
smiles,measurement,setting,value
C[C@@H]1[C@H](OCc2ccc(C(=O)O)cc2)O[C@@H]2O[C@@]3(C)CC[C@@H]4[C@@H](C)CC[C@@H]1[C@]24OO3 [ARTELINIC ACID],Ratio IC50,Plasmodium falciparum [1],12.5
same,IC50,Plasmodium falciparum [2],0.0629 µg/mL
same,IC90,Plasmodium falciparum [2],0.12 µg/mL
same,Ratio IC50,Plasmodium falciparum [3],12.1
same,Ratio IC50,Plasmodium falciparum [4],11
same,IC50,Plasmodium falciparum [5],0.0731 µg/mL
same,IC90,Plasmodium falciparum [5],0.1 µg/mL
same,Ratio,Plasmodium falciparum [6],17.2
same,Ratio,Plasmodium falciparum [7],17
same,Ratio IC50,Plasmodium falciparum [8],18.9
same,IC50,Plasmodium falciparum [9],0.0294 µg/mL
same,IC90,Plasmodium falciparum [9],0.0531 µg/mL
same,Ratio,Plasmodium falciparum [10],18.5
same,Ratio IC50,Plasmodium falciparum [11],10.2
same,IC50,Plasmodium falciparum [12],0.0481 µg/mL
same,IC90,Plasmodium falciparum [12],0.0867 µg/mL
same,Ratio IC50,Plasmodium falciparum [13],12.7
same,Ratio,Plasmodium falciparum [14],20.7
same,Ratio,Plasmodium falciparum [15],22.7
same,IC50,Plasmodium falciparum [16],0.052 µg/mL
same,IC90,Plasmodium falciparum [16],0.113 µg/mL
same,Ratio IC50,Plasmodium falciparum [17],16.3
same,Ratio,Plasmodium falciparum [18],14.7
same,Ratio IC50,Plasmodium falciparum [19],13.5
same,Ratio,Plasmodium falciparum [20],20.9
same,Ratio,Plasmodium falciparum [21],9.8
same,Ratio IC50,Plasmodium falciparum [22],21.1
same,Ratio,Plasmodium falciparum [23],9.3
same,IC50,Plasmodium falciparum [24],0.0423 µg/mL
same,IC90,Plasmodium falciparum [24],0.114 µg/mL
same,IC50,Plasmodium falciparum [25],0.0488 µg/mL
same,IC90,Plasmodium falciparum [25],0.123 µg/mL
same,Ratio,Plasmodium falciparum [26],20.4
same,Ratio,Plasmodium falciparum [27],15.9
same,IC50,Plasmodium falciparum [28],0.0814 µg/mL
same,IC90,Plasmodium falciparum [28],0.111 µg/mL
same,IC50,Plasmodium falciparum [29],0.0395 µg/mL
same,IC90,Plasmodium falciparum [29],0.0936 µg/mL
same,IC50,Plasmodium falciparum [30],0.034 µg/mL
same,IC90,Plasmodium falciparum [30],0.0504 µg/mL
same,Ratio IC50,Plasmodium falciparum [31],8.8
same,IC50,Plasmodium falciparum [32],0.0467 µg/mL
same,IC90,Plasmodium falciparum [32],0.0924 µg/mL
same,Ratio,Plasmodium falciparum [33],22
same,IC50,Plasmodium falciparum [34],0.0424 µg/mL
same,IC90,Plasmodium falciparum [34],0.08 µg/mL
same,Ratio IC50,Plasmodium falciparum [35],7.6
same,Ratio IC50,Plasmodium falciparum [36],11
same,IC50,Plasmodium falciparum [37],0.00386 µg/mL
same,IC90,Plasmodium falciparum [37],0.00544 µg/mL
OC(c1cc(C(F)(F)F)nc2c(C(F)(F)F)cccc12)C1CCCCN1 (stereo unspecified) [MEFLOQUINE],Ratio IC50,Plasmodium falciparum [1],2.6
same,IC90,Plasmodium falciparum [2],0.0756 µg/mL
same,Ratio IC50,Plasmodium falciparum [3],3.8
same,Ratio IC50,Plasmodium falciparum [4],1.7
same,IC90,Plasmodium falciparum [5],0.0849 µg/mL
same,Ratio,Plasmodium falciparum [6],5.9
same,Ratio,Plasmodium falciparum [7],5.4
same,Ratio IC50,Plasmodium falciparum [8],3.1
same,IC50,Plasmodium falciparum [9],0.00738 µg/mL
same,IC90,Plasmodium falciparum [9],0.0261 µg/mL
same,Ratio,Plasmodium falciparum [10],5.9
same,Ratio IC50,Plasmodium falciparum [11],3
same,IC50,Plasmodium falciparum [12],0.019 µg/mL
same,IC90,Plasmodium falciparum [12],0.0954 µg/mL
same,Ratio IC50,Plasmodium falciparum [13],2.3
same,Ratio,Plasmodium falciparum [14],5.2
same,Ratio,Plasmodium falciparum [15],7.2
same,IC50,Plasmodium falciparum [16],0.0191 µg/mL
same,IC90,Plasmodium falciparum [16],0.075 µg/mL
same,Ratio IC50,Plasmodium falciparum [17],2.6
same,Ratio,Plasmodium falciparum [18],5.7
same,Ratio IC50,Plasmodium falciparum [19],2.5
same,Ratio,Plasmodium falciparum [20],3.6
same,Ratio,Plasmodium falciparum [21],1.8
same,Ratio IC50,Plasmodium falciparum [22],2.9
same,Ratio,Plasmodium falciparum [23],2.8
same,IC90,Plasmodium falciparum [24],0.0519 µg/mL
same,IC90,Plasmodium falciparum [25],0.104 µg/mL
same,Ratio,Plasmodium falciparum [26],7
same,Ratio,Plasmodium falciparum [27],6.6
same,IC90,Plasmodium falciparum [28],0.102 µg/mL
same,IC90,Plasmodium falciparum [29],0.0821 µg/mL
same,IC90,Plasmodium falciparum [30],0.0406 µg/mL
same,Ratio IC50,Plasmodium falciparum [31],1.7
same,IC90,Plasmodium falciparum [32],0.0778 µg/mL
same,Ratio,Plasmodium falciparum [33],5.2
same,IC90,Plasmodium falciparum [34],0.0833 µg/mL
same,Ratio IC50,Plasmodium falciparum [35],1
same,Ratio IC50,Plasmodium falciparum [36],2.2
same,IC50,Plasmodium falciparum [37],0.00772 µg/mL
same,IC90,Plasmodium falciparum [37],0.0145 µg/mL
